Earlier results in patent US20160083345A1, “POLYMORPHIC FORMS OF LOMITAPIDE AND ITS SALTS AND PROCESSES FOR THEIR PREPARATION” (CADILA HEALTHCARE LIMITED, priority 2014, published 2016).
Structures can show the parent of a compound that is named as a salt. Where two headings read alike, the source gives them in different places.

- solubility (1-octanol): sparingly soluble
- solubility (2-butanol): soluble
- solubility (2-propanol): sparingly soluble
- solubility (acetone): freely soluble
- solubility (acetonitrile): soluble
- solubility (aqueous solutions of pH 2 to 5): slightly soluble
- solubility (ethanol): freely soluble
- solubility (ethyl acetate): slightly soluble
- solubility (heptane): insoluble
- solubility (methanol): freely soluble
- solubility (methylene chloride): soluble
SMILES: O=C(NC1CCN(CCCCC2(C(=O)NCC(F)(F)F)c3ccccc3-c3ccccc32)CC1)c1ccccc1-c1ccc(C(F)(F)F)cc1 [Lomitapide mesylate, N-(2,2,2-trifluoroethyl)-9-[4-[4-[[[4′(trifluoromethyl)[1,1′-biphenyl]-2-yl]carbonyl]amino]-1-piperidinyl]butyl]-9H-fluorene-9carboxamide methanesulfonate]
